In experiment [1] the test system is Human alphaherpesvirus 1. Nature of the experiment: Effective dose required to inhibit cell growth against HSV-1 (schooler). The format is functional. The conditions noted are these: read-out: ED50 (the source's name).
Experiment [2] deals with Human alphaherpesvirus 2. The experiment can be described thus: Effective dose required to inhibit cell growth against HSV-2 (186). The format is functional. Conditions: read-out: ED50 (the source's name).
For experiment [3], the system named is Human betaherpesvirus 5. The experiment can be described thus: Effective dose required to inhibit cell growth against HCMV (AD169). It counts as functional. The conditions noted are these: read-out: ED50 (the source's name).
Experiment [4] has as its system Human alphaherpesvirus 3. Nature of the experiment: Effective dose required to inhibit cell growth against VZV (Ellen). The format is functional. Conditions: read-out: ED50 (the source's name).
The subject of experiment [5] is Human alphaherpesvirus 3. The experiment can be described thus: Effective dose required to inhibit cell growth against VZV (Ellen); Value ranges from 25-63. The format is functional. The conditions noted are these: read-out: ED50 (the source's name).
In experiment [6] the test system is Human alphaherpesvirus 2. Nature of the experiment: Effective dose required to inhibit cell growth against HSV-2 (186); Value ranges from 88-176. It counts as functional. The conditions noted are these: read-out: ED50 (the source's name).
Experiment [7] relates to Human alphaherpesvirus 3. The experiment can be described thus: Effective dose required to inhibit cell growth against VZV (Ellen); Value ranges from 88-177. It counts as functional. Conditions: read-out: ED50 (the source's name).
Experiment [8] deals with Human alphaherpesvirus 1. The experiment can be described thus: Effective dose required to inhibit cell growth against HSV-1 (schooler); Value ranges from 0.7-1.8. The format is functional. Conditions: read-out: ED50 (the source's name).
Experiment [9] has as its system Human betaherpesvirus 5. The experiment can be described thus: Effective dose required to inhibit cell growth against HCMV (AD169); Value ranges from 3.5-35. The format is functional. The conditions noted are these: read-out: ED50 (the source's name).
The test system of experiment [10] is Human alphaherpesvirus 3. The experiment can be described thus: Effective dose required to inhibit cell growth against VZV (Ellen); Value ranges from 1.8-3.5. Conditions: read-out: ED50 (the source's name). It counts as functional.
The subject of experiment [11] is Human alphaherpesvirus 1. The experiment can be described thus: Effective dose required to inhibit cell growth against HSV-1 (schooler); Value ranges from 0.7-1.7. It counts as functional. The conditions noted are these: read-out: ED50 (the source's name).
Experiment [12] deals with Human alphaherpesvirus 2. Nature of the experiment: Effective dose required to inhibit cell growth against HSV-2 (186); Value ranges from 0.3-0.7. It counts as functional. Conditions: read-out: ED50 (the source's name).
The subject of experiment [13] is Human betaherpesvirus 5. Nature of the experiment: Effective dose required to inhibit cell growth against HCMV (AD169); Value ranges from 18-35. The format is functional. The conditions noted are these: read-out: ED50 (the source's name).
Experiment [14] has as its system Human alphaherpesvirus 3. Nature of the experiment: Effective dose required to inhibit cell growth against VZV (Ellen); Value ranges from 0.7-1.7. Conditions: read-out: ED50 (the source's name). It counts as functional.
For experiment [15], the system named is Human betaherpesvirus 5. Nature of the experiment: Effective dose required to inhibit cell growth against HCMV (AD169); Value ranges from 20-40. It counts as functional. The conditions noted are these: read-out: ED50 (the source's name).
Experiment [16] deals with Human alphaherpesvirus 1. Nature of the experiment: microbe, parasite or virus in culture. The conditions noted are these: Human alphaherpesvirus 1, read-out: ED50.
For experiment [17], the system named is Human alphaherpesvirus 2. Nature of the experiment: microbe, parasite or virus in culture. Conditions: Human alphaherpesvirus 2, read-out: ED50.
Experiment [18] relates to Human alphaherpesvirus 3. The experiment can be described thus: microbe, parasite or virus in culture. Conditions: Human alphaherpesvirus 3, read-out: ED50.

EC50 data for seven compounds are collected here from ChEMBL document CHEMBL1152115, “Optically active fluorinated cyclobutane nucleoside analogs with potent anti-herpes activity” (1993).

Bounds are passed on as bounds.

On to `Nc1ccn([C@@H]2C(F)C(CO)[C@@H]2CO)c(=O)n1` (stereo partly drawn), for which the EC50 in [1] was over 411 µM; in [2], at least 411 µM; in experiment [3], over 411 µM; in experiment [4] it was over 411 µM.

In the case of `O=c1[nH]c(=O)n([C@@H]2C(F)[C@H](CO)C2CO)cc1/C=C/I` (stereo partly drawn), the EC50 in experiment [1] is over 252 µM; in experiment [2], over 252 µM; in experiment [3], over 252 µM; in experiment [5], 25 µM.

On to `Nc1nc(O)c2ncn([C@@H]3C(F)[C@H](CO)C3CO)c2n1` (stereo partly drawn), for which the EC50 was 88 µM in [1], 88 µM in experiment [6], over 353 µM in experiment [3] and 88 µM in experiment [7].

Consider `O=c1[nH]c(=O)n([C@@H]2C(F)[C@H](CO)C2CO)cc1/C=C/Br` (stereo partly drawn), for which the EC50 in experiment [1] is over 286 µM; in experiment [2], over 286 µM; in experiment [3], over 286 µM; in experiment [4], 286 µM.

Turning to `Nc1nc(O)c2ncn([C@@H]3C(F)[C@H](CO)C3CO)c2n1` (mixture of isomers), the EC50 in experiment [8] amounted to 0.7 µM; in experiment [2], 0.7 µM; in [9], 3.5 µM; in experiment [10] it was 1.8 µM.

As for `Nc1nc(O)c2ncn([C@@H]3C(F)[C@H](CO)C3CO)c2n1` (single isomer, unassigned; (-)), the EC50 stood at 0.7 µM in experiment [11], 0.3 µM in [12], 18 µM in [13] and 0.7 µM in experiment [14].

For `Nc1nc2c(ncn2COCCO)c(=O)[nH]1` [ACYCLOVIR], the EC50 in experiment [15] was 20 µM; in experiment [16], 0.2 µM; in [17] it was 0.4 µM; in experiment [18], 2 µM.
